Results on 1 compound are retold here after paper PMC8922279, “Identification of β-Lactams Active against Mycobacterium tuberculosis by a Consortium of Pharmaceutical Companies and Academic Institutions” (ACS Infectious Diseases, 2022).

Values after ≈ are worked out from the molar mass of the structure shown.

In data set [1] the test system is plasma proteins. As to conditions: 4 h, 2 μM, pH 7.4.
A short description of data set [2]: in vitro. As to conditions: beagle, dog, plasma, pH 7.4.
For data set [3] the following is noted: simulated gi fluid, 10 μM, pH 6.5.
Data set [4] in a line: Cytotoxicity against HepG2 cells (CellTiter-Glo). It counts as cell-based, human. As to conditions: human, HepG2 cells. The protocol:
(§1) Compounds were tested for cytotoxicity against HepG2 cells as previously described.[48],[69],[70] Briefly, cells were exposed to compounds for 48–72 h, and viability was measured using CellTiter-Glo (Promega).
(In general: ATP-based viability assays read luminescence as a measure of living cells.)

Data set [5] relates to HepG2 cells. Kind of data set: Cytotoxicity against HepG2 cells (CellTiter-Glo). It counts as cell-based, human. As to conditions: Table S4. As for the experimental part:
as §1

The conditions of data set [6]: female, 129sv DHP-1 knockout, mouse, in vivo.
For data set [7] the following is noted: SD, 2 h, 2 μM.
Data set [8] in a line: in vitro. As to conditions: SD, rat, plasma, pH 7.4, % bound to plasma.
Data set [9] deals with plasma proteins. As to conditions: 4 h, 2 μM, pH 7.4. This is another data set of the same source.
The target in data set [10] is T1, hERG (Homo sapiens, UniProt Q12809).
T1 construct: expressed in transfected cells
The data set can be described thus: hERG channel measurements (QPatch automated patch clamp). As to conditions: HEK293 cells stably transfected with hERG (inducible), pH 7.4. It counts as cell-based. As for the experimental part:
The potency of the compounds in inhibiting the human ERG potassium channel (hERG) tail current was assessed in a recombinant HEK293 cell line stably transfected with hERG cDNA under an inducible promoter using the rapid ICE (rapid ion channel electrophysiology) assay. Rapid ICE is an automated patch clamp assay utilizing a QPatch HTX system (Sophion Bioscience A/S). Briefly, inducible HEK hERG cells were cultivated in minimum essential medium supplemented with 10% FBS, 1% nonessential amino acids, 1% sodium pyruvate, 2 mM L-glutamine, 15 μg/mL blasticidin, and 100 μg/mL hygromycin. hERG channel induction was obtained by adding 10 μg/mL tetracycline for 24, 48, or 72 h before recordings. On the day of the experiment, cells were detached with TrypLE and prepared to be loaded on the instrument. Cells were resuspended in 7 mL of serum-free media containing 25 mM Hepes and soybean trypsin inhibitor and immediately placed in the cell storage tank of the machine. […] The voltage protocol was run and recorded continuously during the experiment. […] The average of tail current amplitude values recorded from four sequential voltage pulses was used to calculate for each cell the effect of the test substance by calculating the residual current (% control) compared with vehicle pretreatment. […]
In general terms: hERG is a cardiac potassium channel; its block is linked to QT prolongation.

The nature of data set [11]: physchem. Format: physicochemical. As to conditions: thermodynamic from solid. The protocol: Compounds were prepared at 1 mg/mL and left overnight at room temperature with stirring in phosphate buffer, 50 mM, at pH 7.4 or in 0.1 N HCl at pH 1. After separation of the soluble fraction by centrifugation, samples were filtered onto a polytetrafluoroethylene […] filter (Millipore) and then analyzed by HPLC.

Data set [12] deals with Mtb H37Rv. Kind of data set: MIC90 against replicating (R) Mtb H37Rv, with or without clavulanate. Format: cell-based, Mycobacterium tuberculosis. As to conditions: Table S4.
The nature of data set [13]: Metabolic stability, mouse. It counts as in vitro ADME.

T1 sequence (Q12809 whole entry): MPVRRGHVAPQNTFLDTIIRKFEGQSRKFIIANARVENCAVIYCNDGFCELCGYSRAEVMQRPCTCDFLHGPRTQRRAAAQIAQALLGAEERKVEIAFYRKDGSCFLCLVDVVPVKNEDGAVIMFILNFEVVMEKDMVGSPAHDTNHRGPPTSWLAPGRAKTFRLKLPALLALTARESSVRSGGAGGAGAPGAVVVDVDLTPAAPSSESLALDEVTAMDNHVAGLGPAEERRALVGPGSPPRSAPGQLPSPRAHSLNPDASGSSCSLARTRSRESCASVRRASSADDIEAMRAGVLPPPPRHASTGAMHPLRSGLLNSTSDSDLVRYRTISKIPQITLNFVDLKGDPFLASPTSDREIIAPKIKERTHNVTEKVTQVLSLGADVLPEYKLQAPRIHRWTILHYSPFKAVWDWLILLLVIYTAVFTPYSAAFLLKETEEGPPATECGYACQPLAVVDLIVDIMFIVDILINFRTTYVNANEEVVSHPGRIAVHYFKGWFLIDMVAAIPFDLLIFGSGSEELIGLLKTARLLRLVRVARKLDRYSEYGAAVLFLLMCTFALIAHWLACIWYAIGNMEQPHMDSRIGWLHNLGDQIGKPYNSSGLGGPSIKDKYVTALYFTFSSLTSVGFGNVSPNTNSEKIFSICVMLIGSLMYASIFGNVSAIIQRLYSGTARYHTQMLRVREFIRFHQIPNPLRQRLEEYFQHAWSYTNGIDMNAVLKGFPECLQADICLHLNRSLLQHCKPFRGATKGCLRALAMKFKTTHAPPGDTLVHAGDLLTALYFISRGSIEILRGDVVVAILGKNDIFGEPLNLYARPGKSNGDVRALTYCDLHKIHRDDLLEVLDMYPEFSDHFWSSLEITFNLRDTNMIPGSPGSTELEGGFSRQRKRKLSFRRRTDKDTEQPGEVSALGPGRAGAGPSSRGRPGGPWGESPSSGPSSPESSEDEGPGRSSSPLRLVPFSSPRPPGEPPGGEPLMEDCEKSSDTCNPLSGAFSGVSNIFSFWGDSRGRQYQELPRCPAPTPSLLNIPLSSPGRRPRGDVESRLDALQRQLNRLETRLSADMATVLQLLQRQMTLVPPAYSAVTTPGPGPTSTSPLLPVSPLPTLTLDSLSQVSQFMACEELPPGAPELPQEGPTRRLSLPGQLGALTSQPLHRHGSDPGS

For the compound `O=C(Cc1ccc(C2=NCCN2)cc1)N[C@@H]1C(=O)N2C(C(=O)O)=C(CSc3nncs3)CS[C@H]12` [TBBL-0000316], the “% bound to plasma, Human” value in [1] is reported as 38%. Further, the unbound share (fraction unbound) – broadly, the share of the substance not bound to proteins or other matrix – at 4 h, 2 μM in data set [2] is 0.973; in data set [8], 0.378. In addition, in data set [3] (6 h), the “FaSSIF Stability, % remaining, 6h” value is 95%. In addition, the “FaSSIF Stability, % remaining, 24h” value in data set [3] (24 h) is 84%. Moreover, in data set [4], the IC50 (in general, the point on the concentration scale where inhibition reaches its midpoint) is more than 100 µM. For the same compound, in [5], the HepG2 LD50 is more than 100 µM. The compound further gave a Tlast in [6] of 6.0 h. For the same compound, the “Plasma stability % Remaining, Rat” value in [7] was 86%. In addition, the “% bound to plasma, SD Rat” value in data set [9] is given as 62%. In addition, the IC50 at 5 min in data set [10] is more than 50 µM. Besides, the solubility (commonly how much of the substance goes into solution per volume) in [11] (pH 1, simulated gastric fluid) is 402 µg/mL (≈ 778 µM); in data set [11] (pH 7.4, aqueous buffer), more than 1000 µg/mL. For the same compound, the Mtb H37Rv R + CLAV (MIC90) in data set [12] (clavulanate 4 μg/mL) was 0.5 µM. Further, in [12] (no clavulanate), the Mtb H37Rv R (MIC90) is 44.7 µM. Besides, the metabolic stability in data set [13] is 1.1 μL/min/mg protein. In [13], the “metabolic stability 1/2 life” value was found to be 1300 min.
